{"source": "patent US20240279190A1", "about": "“COMPOUNDS FOR MODULATING PLATELET-TYPE 12-(S)-LIPOXYGENASE AND METHODS OF USE FOR SAME” (The Regents of The University of California, priority 2021, published 2024)", "key": {"[1]": {"target": "T1, 12-LOX mutant F352L (Homo sapiens, UniProt P18054, F352L)", "T1 construct": "6xHis (N); made in house; pFastBac1 shuttle vector", "T1 sequence (P18054 1-663 F352L)": "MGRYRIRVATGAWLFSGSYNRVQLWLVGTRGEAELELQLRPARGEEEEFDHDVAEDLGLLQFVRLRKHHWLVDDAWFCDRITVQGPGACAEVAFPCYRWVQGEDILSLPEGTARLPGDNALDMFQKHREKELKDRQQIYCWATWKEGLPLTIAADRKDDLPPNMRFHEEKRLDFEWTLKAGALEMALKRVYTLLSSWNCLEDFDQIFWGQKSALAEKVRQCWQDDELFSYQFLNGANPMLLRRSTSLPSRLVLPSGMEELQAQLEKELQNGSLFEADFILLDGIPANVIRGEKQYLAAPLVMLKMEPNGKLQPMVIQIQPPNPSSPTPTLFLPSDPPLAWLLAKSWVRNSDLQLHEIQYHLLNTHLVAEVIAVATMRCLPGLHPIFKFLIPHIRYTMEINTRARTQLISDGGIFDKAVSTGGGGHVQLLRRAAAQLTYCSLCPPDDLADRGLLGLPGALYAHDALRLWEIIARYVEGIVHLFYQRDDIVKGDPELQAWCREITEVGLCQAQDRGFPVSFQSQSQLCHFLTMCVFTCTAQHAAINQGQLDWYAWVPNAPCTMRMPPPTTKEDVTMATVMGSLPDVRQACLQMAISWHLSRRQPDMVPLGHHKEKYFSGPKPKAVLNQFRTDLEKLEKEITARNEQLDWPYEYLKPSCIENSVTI", "experiment": "UV-Vis-based IC50 assay, F352L mutant", "assay_type": "biochemical", "excerpt": "Based on the ML355 binding mode predicted by the modeling, all residues within 5 Å of any atom of ML355 were selected for experimental mutagenesis. The selected residues were replaced with amino acids with either bulkier or smaller side chains in order to determine what specific interactions play a role in inhibitor binding. […] The numbering refers to the UniProt accession number P18054 sequence, with the N-terminal methionine assigned as amino acid number one. The primers for all mutants were designed using the online QuikChange Primer Design tool (http://www.genomics.agilent.com/primerDesignProgram.jsp) from Agilent Technologies (CA, USA). The mutations were introduced by using the QuikChange® II XL site-directed mutagenesis kit from Agilent, following the instructions in the protocol provided. […]\n(§1) The wild type 12-LOX (wt-12-LOX) enzyme and its mutants were expressed as fusion proteins, with an N-terminal 6×His tag, and were affinity purified by nickel-iminodiacetic acid agarose using FPLC (Biorad).\nThe percent inhibition was determined by comparing the enzyme rates of the control (DMSO solvent) and the inhibitor sample by following the formation of the conjugated diene product at 234 nm (ε=25,000 M^−1cm^−1). […] The substrate concentration was quantitatively determined by allowing the enzymatic reaction to go to completion in the presence of soybean LOX-1. […]"}, "[2]": {"target": "T2, wt12-LOX (Homo sapiens, UniProt P18054)", "T2 construct": "6xHis (N); made in house; insert in pFastBac1 shuttle vector (baculovirus system, own inference)", "T2 sequence (P18054 1-663)": "T1 sequence (P18054 1-663 F352L) with L352F", "experiment": "UV-Vis-based IC50 assay, wild type 12-LOX", "assay_type": "biochemical", "protocol": "as §1\nThe percent inhibition was determined by comparing the enzyme rates of the control (DMSO solvent) and the inhibitor sample by following the formation of the conjugated diene product at 234 nm (ε=25,000 M^−1cm^−1). The reactions were initiated by adding 200 nM 15-LOX-2, 30 nM 12-LOX, 40 nM 15-LOX-1, or approximately 100-300 nM (total protein) of 5-LOX ammonium sulfate fraction to a cuvette with 2 mL reaction buffer, constantly stirred using a magnetic stir bar at room temperature (22° C.). Reaction buffers used for various LOX isozymes were as follows: 25 mM HEPES (pH 7.3), 0.3 mM CaCl2), 0.1 mM EDTA, 0.2 mM ATP, 0.01% Triton X-100, 10 μM AA for the crude, ammonium sulfate precipitated 5-LOX; and 25 mM HEPES (pH 7.5), 0.01% Triton X-100, 10 μM AA for 15-LOX-2, 15-LOX-1, and 12-LOX. The substrate concentration was quantitatively determined by allowing the enzymatic reaction to go to completion in the presence of soybean LOX-1. IC50 values were obtained by determining the % inhibition, relative to solvent vehicle only, at various inhibitor concentrations. […]"}}, "note": "Changes are numbered by the printed parent chain."}
{"smiles": "COc1cccc(CNc2ccc(S(=O)(=O)Nc3nc4c(ccc5ccccc54)s3)cc2)c1O", "note": "[Compound LOX-12-001, 4-((2-hydroxy-3-methoxybenzyl)amino)-N-(naphtho[1,2-d]thiazol-2-yl)benzenesulfonamide]", "values": [{"measurement": "IC50", "setting": "[1]; F352L", "value": "490 ± 50", "unit": "nM"}, {"measurement": "fold increase in IC50 compared to wt12-LOX", "setting": "[1]; F352L vs wt12-LOX", "value": 9.8, "unit": "fold"}, {"measurement": "fold increase in potency relative to ML355", "setting": "[2]; against wt12-LOX", "value": 7.2, "unit": "fold"}, {"measurement": "IC50", "setting": "[2]; wt12-LOX, 10 μM AA, 25 mM HEPES pH 7.5, 22° C.", "value": "50 ± 20", "unit": "nM"}]}
